Laboratory results published in patent publication US5753715A, “2-disubstituted cyclohexenyl and cyclohexyl antimicrobial agents” (Ortho Pharmaceutical Corporation, priority 1995, dated 1998).
≈ marks a conversion by molar mass, not a printed value.

Experiments:
Kinase A and SpoOF = target: T1, Kinase A and SpoOF (Bacillus subtilis, UniProt P16497); assay: Autophosphorylation of Kinase A and Transphosphorylation of SPoOF Assay; format: biochemical; conditions: inhibition of Kinase A autophosphorylation / SpoOF transphosphorylation, [32P]ATP, gel, phosphoimager
T1 sequence (P16497 1-606): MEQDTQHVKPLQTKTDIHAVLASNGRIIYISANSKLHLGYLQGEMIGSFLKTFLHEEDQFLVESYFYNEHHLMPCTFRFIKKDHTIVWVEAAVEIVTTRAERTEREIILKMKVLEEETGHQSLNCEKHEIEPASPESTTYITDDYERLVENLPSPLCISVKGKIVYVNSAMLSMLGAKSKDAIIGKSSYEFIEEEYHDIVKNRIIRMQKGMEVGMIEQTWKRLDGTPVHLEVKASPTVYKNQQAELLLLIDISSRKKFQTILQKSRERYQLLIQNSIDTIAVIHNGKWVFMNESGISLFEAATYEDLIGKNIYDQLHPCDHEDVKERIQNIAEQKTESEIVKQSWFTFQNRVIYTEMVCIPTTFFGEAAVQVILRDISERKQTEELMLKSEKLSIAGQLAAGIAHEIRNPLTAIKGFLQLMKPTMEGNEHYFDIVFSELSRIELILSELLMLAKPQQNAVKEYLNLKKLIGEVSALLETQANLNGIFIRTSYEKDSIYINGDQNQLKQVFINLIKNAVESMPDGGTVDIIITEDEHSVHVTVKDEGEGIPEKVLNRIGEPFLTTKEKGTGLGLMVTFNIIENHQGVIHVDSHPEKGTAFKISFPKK

A. niger 10578 = assay: MIC, microdilution broth method (NCCLS); format: cell-based; conditions: cation supplemented Mueller Hinton broth, 35° C., 16-20 hours; unit assumed
Procedure: (§1) The in vitro antimicrobial spectrum of the compounds of the present invention were determined by the microdilution broth method following the test method from the National Committee for […] (NCCLS ). The method is described in the NCCLS Document M7-A2, Vol. 10, No.8 "Methods for Dilution Antimicrobial Susceptibility Test for Bacteria that Grow Aerobically--Second Edition".
(§2) In this method two fold serial dilutions of drug in cation supplemented Mueller Hinton broth are added to wells in microdilution trays. The test organisms are prepared by adjusting the turbidity of actively growing broth cultures so that the final concentration of test organism after it is added to the wells is approximately 5×10^4 colony forming units per well delivered by the Steers replicating device.
(§3) Following inoculation of the microdilution trays, the trays are incubated at 35° C. for 16-20 hours and then read. […] The amount of growth in the wells containing the test compound is compared with the amount of growth in the growth-control wells used in each tray.

C. albicans 10231 = assay: MIC, microdilution broth method (NCCLS); format: cell-based; conditions: cation supplemented Mueller Hinton broth, 35° C., 16-20 hours; unit assumed
Procedure: as §1, §2, §3

C. tropicalis = assay: MIC, microdilution broth method (NCCLS); format: cell-based; conditions: cation supplemented Mueller Hinton broth, 35° C., 16-20 hours; unit assumed
Procedure: as §1, §2, §3

E. coli oc2530 = assay: MIC, microdilution broth method (NCCLS); format: cell-based; conditions: cation supplemented Mueller Hinton broth, 35° C., 16-20 hours; unit assumed
Procedure: as §1, §2, §3

E. coli oc2605 = assay: MIC, microdilution broth method (NCCLS); format: cell-based; conditions: cation supplemented Mueller Hinton broth, 35° C., 16-20 hours; unit assumed
Procedure: as §1, §2, §3

E. faecalis ACTCC 29212 = assay: MIC, microdilution broth method (NCCLS); format: cell-based; conditions: cation supplemented Mueller Hinton broth, 35° C., 16-20 hours; unit assumed
Procedure: as §1, §2, §3

E. faecalis oc3041 = assay: MIC, microdilution broth method (NCCLS); format: cell-based; conditions: cation supplemented Mueller Hinton broth, 35° C., 16-20 hours; unit assumed
Procedure: as §1, §2, §3

E. faecium oc2993 = assay: MIC, microdilution broth method (NCCLS); format: cell-based; conditions: cation supplemented Mueller Hinton broth, 35° C., 16-20 hours; unit assumed
Procedure: as §1, §2, §3

K. pneum. oc1943 = assay: MIC, microdilution broth method (NCCLS); format: cell-based; conditions: cation supplemented Mueller Hinton broth, 35° C., 16-20 hours; unit assumed
Procedure: as §1, §2, §3

MRSA oc2089 = assay: MIC, microdilution broth method (NCCLS); format: cell-based; conditions: cation supplemented Mueller Hinton broth, 35° C., 16-20 hours; unit assumed
Procedure: as §1, §2, §3

MRSA oc667 = assay: MIC, microdilution broth method (NCCLS); format: cell-based; conditions: cation supplemented Mueller Hinton broth, 35° C., 16-20 hours; unit assumed
Procedure: as §1, §2, §3

Ps. aerug. oc161 = assay: MIC, microdilution broth method (NCCLS); format: cell-based; conditions: cation supplemented Mueller Hinton broth, 35° C., 16-20 hours; unit assumed
Procedure: as §1, §2, §3

Ps. aerug. oc27853 = assay: MIC, microdilution broth method (NCCLS); format: cell-based; conditions: cation supplemented Mueller Hinton broth, 35° C., 16-20 hours; unit assumed
Procedure: as §1, §2, §3

S. aureus ATCC 29213 = assay: MIC, microdilution broth method (NCCLS); format: cell-based; conditions: cation supplemented Mueller Hinton broth, 35° C., 16-20 hours; unit assumed
Procedure: as §1, §2, §3

S. epi oc2603 = assay: MIC, microdilution broth method (NCCLS); format: cell-based; parameters: unit not given here; conditions: cation supplemented Mueller Hinton broth, 35° C., 16-20 hours
Procedure: as §1, §2, §3

SMILES: C1=CC(CCOc2ccc(CCCNCCN3CCCC3)cc2)(Cc2ccccc2)CCC1 (centres unmarked) [Compound 3]
- IC50 (Kinase A and SpoOF): 159 mM
- IC min (Kinase A and SpoOF): 31.25 mM
- MIC A. niger 10578 (A. niger 10578): 4 µg/mL (≈ 8.95 µM)
- MIC C. albicans 10231 (C. albicans 10231): > 64 µg/mL
- MIC C. tropicalis (C. tropicalis): 8 µg/mL (≈ 17.9 µM)
- MIC E. coli oc2530 (E. coli oc2530): 8 µg/mL (≈ 17.9 µM)
- MIC E. coli oc2605 (E. coli oc2605): 16 µg/mL (≈ 35.8 µM)
- MIC E. faecalis ACTCC 29212 (E. faecalis ACTCC 29212): 8 µg/mL (≈ 17.9 µM)
- MIC E. faecalis oc3041 (E. faecalis oc3041): 8 µg/mL (≈ 17.9 µM)
- MIC E. faecium oc2993 (E. faecium oc2993): 8 µg/mL (≈ 17.9 µM)
- MIC K. pneum. oc1943 (K. pneum. oc1943): 32 µg/mL (≈ 71.6 µM)
- MIC MRSA oc2089 (MRSA oc2089): 8 µg/mL (≈ 17.9 µM)
- MIC MRSA oc667 (MRSA oc667): 8 µg/mL (≈ 17.9 µM)
- MIC Ps. aerug. oc161 (Ps. aerug. oc161): > 64 µg/mL
- MIC Ps. aerug. oc27853 (Ps. aerug. oc27853): > 64 µg/mL
- MIC S. aureus ATCC 29213 (S. aureus ATCC 29213): 8 µg/mL (≈ 17.9 µM)
- MIC S. epi oc2603 (S. epi oc2603): 8

SMILES: NCCc1ccc(OCCC2(Cc3ccccc3)C=CCCC2)cc1 (centres unmarked) [Compound 17]
- IC50 (Kinase A and SpoOF): 38.3 mM
- IC min (Kinase A and SpoOF): 15.6 mM
- MIC A. niger 10578 (A. niger 10578): 4 µg/mL (≈ 11.9 µM)
- MIC C. albicans 10231 (C. albicans 10231): ≤ 16 µg/mL
- MIC C. tropicalis (C. tropicalis): 4 µg/mL (≈ 11.9 µM)
- MIC E. coli oc2530 (E. coli oc2530): 8 µg/mL (≈ 23.8 µM)
- MIC E. coli oc2605 (E. coli oc2605): 64 µg/mL (≈ 191 µM)
- MIC E. faecalis ACTCC 29212 (E. faecalis ACTCC 29212): 8 µg/mL (≈ 23.8 µM)
- MIC E. faecalis oc3041 (E. faecalis oc3041): 8 µg/mL (≈ 23.8 µM)
- MIC E. faecium oc2993 (E. faecium oc2993): 8 µg/mL (≈ 23.8 µM)
- MIC K. pneum. oc1943 (K. pneum. oc1943): > 64 µg/mL
- MIC MRSA oc2089 (MRSA oc2089): 8 µg/mL (≈ 23.8 µM)
- MIC MRSA oc667 (MRSA oc667): 8 µg/mL (≈ 23.8 µM)
- MIC Ps. aerug. oc161 (Ps. aerug. oc161): > 64 µg/mL
- MIC Ps. aerug. oc27853 (Ps. aerug. oc27853): > 64 µg/mL
- MIC S. aureus ATCC 29213 (S. aureus ATCC 29213): 8 µg/mL (≈ 23.8 µM)
- MIC S. epi oc2603 (S. epi oc2603): 8

SMILES: CNCCCc1ccc(OCCC2(c3ccc(F)cc3)C=CCCC2)cc1 (centres unmarked) [Compound 24]
- IC50 (Kinase A and SpoOF): 185 mM
- IC min (Kinase A and SpoOF): 125 mM
- MIC A. niger 10578 (A. niger 10578): 4 µg/mL (≈ 10.9 µM)
- MIC C. albicans 10231 (C. albicans 10231): 8 µg/mL (≈ 21.8 µM)
- MIC C. tropicalis (C. tropicalis): 8 µg/mL (≈ 21.8 µM)
- MIC E. coli oc2530 (E. coli oc2530): 8 µg/mL (≈ 21.8 µM)
- MIC E. coli oc2605 (E. coli oc2605): > 64 µg/mL
- MIC E. faecalis ACTCC 29212 (E. faecalis ACTCC 29212): 8 µg/mL (≈ 21.8 µM)
- MIC E. faecalis oc3041 (E. faecalis oc3041): 8 µg/mL (≈ 21.8 µM)
- MIC E. faecium oc2993 (E. faecium oc2993): 8 µg/mL (≈ 21.8 µM)
- MIC K. pneum. oc1943 (K. pneum. oc1943): > 128 µg/mL
- MIC MRSA oc2089 (MRSA oc2089): 8 µg/mL (≈ 21.8 µM)
- MIC MRSA oc667 (MRSA oc667): 8 µg/mL (≈ 21.8 µM)
- MIC Ps. aerug. oc161 (Ps. aerug. oc161): > 128 µg/mL
- MIC Ps. aerug. oc27853 (Ps. aerug. oc27853): > 128 µg/mL
- MIC S. aureus ATCC 29213 (S. aureus ATCC 29213): 8 µg/mL (≈ 21.8 µM)
- MIC S. epi oc2603 (S. epi oc2603): 8

SMILES: Clc1ccc(CC2(CCOc3ccc(CCNCCN4CCCC4)cc3)C=CCCC2)cc1 (centres unmarked) [Compound 34]
- IC50 (Kinase A and SpoOF): 295 mM
- IC min (Kinase A and SpoOF): 125 mM
- MIC A. niger 10578 (A. niger 10578): 8 µg/mL (≈ 17.1 µM)
- MIC C. albicans 10231 (C. albicans 10231): 8 µg/mL (≈ 17.1 µM)
- MIC C. tropicalis (C. tropicalis): ≤ 4 µg/mL
- MIC E. coli oc2530 (E. coli oc2530): 4 µg/mL (≈ 8.56 µM)
- MIC E. coli oc2605 (E. coli oc2605): 8 µg/mL (≈ 17.1 µM)
- MIC E. faecalis ACTCC 29212 (E. faecalis ACTCC 29212): 4 µg/mL (≈ 8.56 µM)
- MIC E. faecalis oc3041 (E. faecalis oc3041): 4 µg/mL (≈ 8.56 µM)
- MIC E. faecium oc2993 (E. faecium oc2993): 4 µg/mL (≈ 8.56 µM)
- MIC K. pneum. oc1943 (K. pneum. oc1943): 32 µg/mL (≈ 68.5 µM)
- MIC MRSA oc2089 (MRSA oc2089): 4 µg/mL (≈ 8.56 µM)
- MIC MRSA oc667 (MRSA oc667): 4 µg/mL (≈ 8.56 µM)
- MIC Ps. aerug. oc161 (Ps. aerug. oc161): > 64 µg/mL
- MIC Ps. aerug. oc27853 (Ps. aerug. oc27853): > 64 µg/mL
- MIC S. aureus ATCC 29213 (S. aureus ATCC 29213): 4 µg/mL (≈ 8.56 µM)
- MIC S. epi oc2603 (S. epi oc2603): 4
